Results published in US6689767B2, “Triterpenes having antibacterial activity” (Regents of the University of Minnesota, priority 2000, dated 2004).
In brackets after ≈: the same amount, converted by molar mass.

Assays:
Escherichia coli = experiment: Kirby-Bauer disk diffusion growth inhibition, Escherichia coli; format: cell-based; conditions: for Zone of inhibition Escherichia coli / zone of inhibition at 0.125 µg/mL: 100 μl on 10 mm disk, 18 hours 37° C.; for Active against: Table 1 summary, E. coli; for effectiveness against E. Coli: Tables 1a and 1b; for zone of inhibition at 0.125 µg/mL: Escherichia coli, read-out: Zone of inhibition Escherichia coli
Method: (§1) The compounds disclosed herein were tested for growth inhibition against four strains of bacteria: Escherichia coli, Staphylococcus aureus, methicillin-resistant Staphylococcus aureus, and Bacillus subtilis. […] They represent […]. E. coli is a gram-negative, non-spore forming, rod-shaped, opportunistic pathogen that resides in the human digestive tract. S. aureus is a gram positive coccus, is usually found morphologically as a […], and is an opportunistic human pathogen, often residing on or in the skin. B. subtilis is a gram positive spore-forming rod. Its native environment is the soil. The chemicals were tested for growth-inhibition of the bacteria by the Kirby-Bauer method. See, e.g., Microbiology, third edition; Lansing M. Prescott, John P. Harley, and Donald A. Klein; Wm. C. Brown Publishers.
(§2) Mueller-Hinton agar (Difco Lab, Michigan) was prepared according to the manufacturer's directions, and 20 ml was dispensed in each sterile petri dish. Sterile nutrient broth (Difco Lab, Michigan) was also prepared according to the manufacturer's directions.
(§3) Bacteria were grown in liquid nutrient broth for 18 hours at 37° C. until they were turbid.
(§4) An aliquot of 0.5 ml of cultured bacteria was aseptically transferred to the surface of a Mueller-Hinton agar plat, and spread using a cotton-tipped swab. Plates were then allowed to dry for 5 minutes. Then a 10 mm diameter filter paper disk impregnated with the test chemical was placed with sterile forceps on the plate. The disks were impregnated with 100 μl of a solution of the test compound in DMSO or in water, at the indicated concentrations in Table 1.
(§5) The zones of inhibition were measured after 18 hours growth at 37° C. Tests were done in triplicate.
(§6) Additional compounds were tested for activity against E. coli, laboratory strain S. aureus (not methicillin resistant), and B. subtilis. The compounds were tested by the disk diffusion method, as in Example 1, with application of a 10 mg/mil solution of the test compound in DMSO.

Staphylococcus aureus [1] = experiment: Kirby-Bauer disk diffusion growth inhibition, Staphylococcus aureus; format: cell-based; conditions: for Zone of inhibition Staphylococcus aureus / zone of inhibition at 0.125 µg/mL: 100 μl on 10 mm disk, 18 hours 37° C.; for zone of inhibition at 0.125 µg/mL: read-out: Zone of inhibition Staphylococcus aureus; for Active against: Table 1 summary, S. aureus
Method: as §1, §2, §3, §4, §5, §6
(§7) Derivatives of lupeol were tested for inhibition of bacterial growth using the Kirby-Bauer disk diffusion method and by growth in liquid culture. For the disk diffusion method, compounds were dissolved in DMSO and 100 μl was added to the 10 mm filter paper disk. The amount of compound applied to the disk varied. The amount applied for each compound was as follows: lupeol (50 μg), lupeol-3-maleate (15 μg), lupeol-3-thiodiglycolate (15 μg), lupeol-3-dimethyl succinate (60 μg), lupeol-3-phosphate (30 μg), lupenone (50 μg), lupenon-3-oxime (50 μg), lupeol-3-amine (50 μg), lupenon-1,2-ene-2-ol (50 μg). In liquid culture, the compounds were dissolved in DMSO at 1 mg/ml and then 100 μl was added to 7 ml of sterile broth, along with a 1/200 dilution of freshly grown bacterial liquid culture.

Bacillus subtilis = experiment: Kirby-Bauer disk diffusion growth inhibition, Bacillus subtilis; format: cell-based; conditions: 100 μl on 10 mm disk, 18 hours 37° C.; for zone of inhibition at 0.125 µg/mL: Bacillus subtilis, read-out: Zone of inhibition Bacillus subtilis
Method: as §1, §2, §3, §4, §5, §6

E. Coli = experiment: Minimum inhibitory concentration in tryptic soy broth, E. coli; format: cell-based, Escherichia coli; conditions: 24 hours 37° C., turbidity
Method: Sterile tryptic soy broth was prepared according to the manufacturer's instructions (Difco Lab, Michigan). To each tube containing 7 ml of broth, test compounds dissolved in DMSO were added at different concentrations in triplicate. The tubes were incubated for 24 hours at 37° C. and then turbidity was measured using a […]. The colorimeter was calibrated with sterile broth. The MIC was the lowest concentration that could prevent an increase in turbidity.

bacteria = experiment: Summary statements over the antibacterial assays above; format: cell-based; conditions: for active against at least one strain of bacteria in the assays above: summary list
[2] = tested on: Staphylococcus epidemidis; experiment: Kirby-Bauer disk diffusion of lupeol derivatives, Staphylococcus epidermidis; format: cell-based; conditions: for activity against S. epidermidis: Example 35, disk diffusion and liquid growth; for Active against: Table 1 summary, S. epidermidis
Method: as §7

Enterococcus faecalis = experiment: Kirby-Bauer disk diffusion of lupeol derivatives, Enterococcus faecalis; format: cell-based; conditions: for Active against: Table 1 summary, E. faecalis
Method: as §7

Staphylococcus epidermis = experiment: Growth in liquid culture, optical density, S. epidermidis; format: cell-based, Staphylococcus epidermidis; conditions: 600 nm, 24 hours growth, test compound at 14 μg per ml; None = 0.07
Method: as §7

Staphylococcus aureus [3] = experiment: Growth in liquid culture, optical density, S. aureus; format: cell-based; conditions: 600 nm, 24 hours growth, test compound at 14 μg per ml; None = 0.08
Method: as §7

Enterococcus faecilis = experiment: Growth in liquid culture, optical density, E. faecalis; format: cell-based, Enterococcus faecalis; conditions: 600 nm, 24 hours growth, test compound at 14 μg per ml; None = 0.85
Method: as §7

[4] = Staphylococcus aureus, 125 ng/ml in water
[5] = 60 μg applied to 10 mm disk in DMSO
[6] = Example 35, 15 μg applied to 10 mm disk in DMSO
[7] = 15 μg applied to 10 mm disk in DMSO
[8] = Example 35, 50 μg applied to 10 mm disk in DMSO
[9] = 50 μg applied to 10 mm disk in DMSO

Compound	active against at least one strain of bacteria in the assays above (bacteria)	zone of inhibition at 0.125 µg/mL (Escherichia coli; 125 ng/ml in water) [mm]	zone of inhibition at 0.125 µg/mL (Staphylococcus aureus [1]; [4]) [mm]	zone of inhibition at 0.125 µg/mL (Bacillus subtilis; 125 ng/ml in water) [mm]	Active against (Staphylococcus aureus [1])	Optical Density of S. epiderm (Staphylococcus epidermis)	Optical Density of S. aureus (Staphylococcus aureus [3])	Optical Density of E. faecalis (Enterococcus faecilis)	Active against (Enterococcus faecalis)	other results
C=C(C)[C@@H]1CC[C@]2(COC(=O)CCCC(=O)O)CC[C@]3(C)[C@H](CC[C@@H]4[C@@]5(C)CC[C@H](OC(=O)CCCC(=O)O)C(C)(C)[C@@H]5CC[C@]43C)[C@@H]12 [Betulin 3,28-diglutarate, Betulin-3,28-diglutarate]	active against at least one strain of bacteria									Zone of inhibition Escherichia coli (Escherichia coli; 125 ng/ml in water): 12.0 mm; Zone of inhibition Escherichia coli (Escherichia coli; 10 mg/ml in DMSO): 0 mm; Active against (Escherichia coli): E. coli; effectiveness against E. Coli (Escherichia coli): effective; Zone of inhibition Staphylococcus aureus (Staphylococcus aureus [1]; 125 ng/ml in water): 0 mm; Zone of inhibition Staphylococcus aureus (Staphylococcus aureus [1]; 10 mg/ml in DMSO): 0 mm; Zone of inhibition Bacillus subtilis (Bacillus subtilis; 125 ng/ml in water): 0 mm; Zone of inhibition Bacillus subtilis (Bacillus subtilis; 10 mg/ml in DMSO): 0 mm; MIC (E. Coli): 0.282 µM (≈ 0.189 µg/mL)
C=C(C)C1CCC2(COP(=O)(O)O)CC[C@@]3(C)C(CCC4[C@@]5(C)CCC(OP(=O)(O)O)C(C)(C)C5CC[C@]43C)C12 (some centres unmarked) [Betulin 3,28-diphosphate, Betulin-3,28-diphosphate]	active against at least one strain of bacteria	11	0	0						Active against (Escherichia coli): E. coli; effectiveness against E. Coli (Escherichia coli): effective; MIC (E. Coli; Escherichia coli): 0.282 µM (≈ 0.17 µg/mL)
CC1(C)CCC23CC[C@@]4(C)C(CCC5[C@@]6(C)C=C(O)C(=O)C(C)(C)C6CC[C@]54C)C2C1OC3=O (some centres unmarked) [Allobetulon-lactone-1-ene-2-ol, allobetulon lactone-1-ene-2-ol]		0	0	0						melting point: 238.8 to 243.6 °C
C=C(C)C1CCC2(C)CCC3(C)C(CCC4C5(C)CCC(OC(=O)CC(C)(C)C(=O)O)C(C)(C)C5CCC43C)C12 (centres unmarked) [Lupeol-3-(3′,3′-dimethyl)succinate]	active against at least one strain of bacteria				S. aureus	0.06	0.06	0.07		Zone of inhibition (mm) against S. aureus (Staphylococcus aureus [1]; Example 35, 60 μg applied to 10 mm disk in DMSO): 0.5 mm; Zone of inhibition (mm) against S. epiderm. [2, 5]: 0 mm; Zone of inhibition (mm) against E. faecalis (Enterococcus faecalis; [5]): 0 mm
C=C(C)[C@@H]1CC[C@]2(C)CC[C@]3(C)[C@H](CC[C@@H]4[C@@]5(C)CC[C@H](OC(=O)CSCC(=O)O)C(C)(C)[C@@H]5CC[C@]43C)[C@@H]12 [Lupeol-3-thiodiglycolate]	active against at least one strain of bacteria				S. aureus,	0.035	0.06	0.04	E. faecalis	Zone of inhibition (mm) against S. aureus (Staphylococcus aureus [1]; [6]): 0.3 mm; Zone of inhibition (mm) against S. epiderm. [2, 7]: 0.5 mm; activity against S. epidermidis [2]: active; Active against [2]: S. epidermidis,; Zone of inhibition (mm) against E. faecalis (Enterococcus faecalis; [7]): 0.75 mm
C=C(C)[C@@H]1CC[C@]2(C)CC[C@@]3(C)C(CCC4[C@@]5(C)CC[C@H](O)C(C)(C)C5CC[C@]43C)C12 (some centres unmarked) [Lupeol]	active against at least one strain of bacteria	0	0	0	S. aureus,	0.04	0.06	0.03	Enterococcus faecalis	zone of inhibition at 50 µg/disc (Staphylococcus aureus [1]; Staphylococcus aureus, Example 35, 50 μg applied to 10 mm disk in DMSO, read-out: Zone of inhibition (mm) against S. aureus): 1 mm; activity against S. epidermidis [2]: active; zone of inhibition at 50 µg/disc ([2]; Staphylococcus, 50 μg applied to 10 mm disk in DMSO, read-out: Zone of inhibition (mm) against S. epiderm.): 0 mm; Active against [2]: S. epidermidis; zone of inhibition at 50 µg/disc (Enterococcus faecalis; Enterococcus faecalis, 50 μg applied to 10 mm disk in DMSO, read-out: Zone of inhibition (mm) against E. faecalis): 1.4 mm
CC(=O)OC1CC[C@@]2(C)C(CC[C@]3(C)C2CCC2C4C5OC(=O)C4(CCC5(C)C)CC[C@@]23C)C1(C)C (some centres unmarked) [Allobetulin lactone-3-acetate, 3-O-acetyl allobetulin-lactone]										melting point: 312.5 to 315.4 °C (dec.)
C=C(C)[C@@H]1CCC2(CO)CC[C@@]3(C)C(CCC4[C@@]5(C)C=C(O)C(=O)C(C)(C)C5CC[C@]43C)C12 (some centres unmarked) [Betulon-1,2-ene-ol, betulon-1-ene-2-ol]		0	0	0						melting point: 167 to 170 °C (dec.)
C=C(C)[C@@H]1CC[C@]2(C)CC[C@]3(C)[C@H](CC[C@@H]4[C@@]5(C)CCC(=O)C(C)(C)[C@@H]5CC[C@]43C)[C@@H]12 [Lupenone]	active against at least one strain of bacteria				S. aureus,	0.03	0.04	0.04	E. faecalis	Zone of inhibition (mm) against S. aureus (Staphylococcus aureus [1]; [8]): 1.25 mm; Zone of inhibition (mm) against S. epiderm. [2, 9]: 1 mm; Zone of inhibition (mm) against E. faecalis (Enterococcus faecalis; [9]): 0.5 mm; overall activity in Example 35 (bacteria; S. aureus, S. epidermidis, E. faecalis, disk diffusion and liquid growth): excellent activity
C=C(C)C1CCC2(C)CCC3(C)C(CCC4C5(C)CCC(OC(=O)C=CC(=O)O)C(C)(C)C5CCC43C)C12 (centres unmarked) [Lupeol-3-maleate]	active against at least one strain of bacteria				S. aureus,	0.04	0.06	0.03	E. faecalis	Zone of inhibition (mm) against S. aureus (Staphylococcus aureus [1]; [6]): 0.4 mm; Zone of inhibition (mm) against S. epiderm. [2, 7]: 0.5 mm; activity against S. epidermidis [2]: active; Active against [2]: S. epidermidis,; Zone of inhibition (mm) against E. faecalis (Enterococcus faecalis; [7]): 1.15 mm
C=C(C)[C@@H]1CC[C@]2(C)CC[C@]3(C)[C@H](CC[C@@H]4[C@@]5(C)CCC(=NO)C(C)(C)[C@@H]5CC[C@]43C)[C@@H]12 [Lupenon oxime, Lupenon-3-oxime]	active against at least one strain of bacteria				S. aureus,	0.06	0.06	0.45	E. faecalis	Zone of inhibition (mm) against S. aureus (Staphylococcus aureus [1]; [8]): 0.4 mm; Zone of inhibition (mm) against S. epiderm. [2, 9]: 0 mm; Zone of inhibition (mm) against E. faecalis (Enterococcus faecalis; [9]): 0.6 mm
